Laboratory results published in PMC5460189, “Melon13-lipoxygenase CmLOX18 may be involved in C6 volatiles biosynthesis in fruit” (Scientific Reports, 2017).

Test system: T1, CmLOX18
T1 construct: ORF in pYES2.1 TOPO-TA, His-tagged (anti-His), expressed in Saccharomyces cerevisiae INVSc1, purified
Assay: increase in A234, Michaelis-Menten plot
Format: biochemical, Cucumis melo
Conditions: substrate 15-350 μM, pH and temperature of the kinetic runs not stated (optimum pH 4.5, 30 °C)

| SMILES | Km | Km (linolenic acid isomer not given, alpha assumed) |
| --- | --- | --- |
| CCCCC/C=C\C/C=C\CCCCCCCC(=O)O [Linoleic acid] | 127 ± 18.6 µM |  |
| CC/C=C\C/C=C\C/C=C\CCCCCCCC(=O)O [Linolenic acid] |  | 40.7 ± 2.65 µM |
